# Data published in patent publication US10336751B2, “Tricyclic 4-pyridone-3-carboxylic acid derivatives for the treatment and prophylaxis of hepatitis B virus infection” (priority 2016, dated 2019).
# System: HBsAg
# Test: HBsAg assay (CLIA) in HepG2.2.15 cells
# Assay type: cell-based, HBV
# Conditions: Hepatitis B virus, HepG2.2.15, read-out: IC50 (HBsAg secretion)
# Procedure: HepG2.2.15 cells (Acs et al. Proc Natl Acad Sci USA, 84, (1987), 4641-4), a constitutively HBV-expressing cell line were cultured in DMEM+Glutamax-I medium (Invitrogen, Carlsbad, Calif., USA), supplemented with 10% fetal bovine serum (Invitrogen) and G418 (Invitrogen) at a final concentration of 200 mg/L and maintained in 5% CO2 at 37° C.
# HepG2.2.15 cells were seeded in duplicate into white, 96-well plates at 1.5×10^4 cells/well. The cells were treated with a three-fold serial dilution series of the compounds in DMSO. The final DMSO concentration in all wells was 1% and DMSO was used as no drug control.
# The HBsAg chemiluminescence immunoassay (CLIA) kit (Autobio Diagnostics Co., Zhengzhou, China, Catalog number: CL0310-2) was used to measure the levels of secreted HBV antigens semi-quantitatively. For the detection 50 μL/well culture supernatant was used and HBsAg was quantified using HBsAg chemiluminescence immunoassay (CLIA) kit (Autobio Diagnostics Co., Zhengzhou, China, Catalog number: CL0310-2), 50 μL of the supernatant was transferred to the CLIA assay plate and 50 μL of enzyme conjugate reagent was added into each well. The plates were sealed and gently agitated for 1 hour at room temperature. The supernatant-enzyme-mixture was discarded and wells were washed 6 times with 300 μL of PBS. The residual liquid was removed by plating the CLIA plate […] on absorbent tissue paper. 25 μL of substrates A and B were added to each well. Luminance was measured using a luminometer (Mithras LB 940 Multimode Microplate Reader) after 10 minutes incubation, Dose-response curves were generated and the IC50 value was extrapolated by using the E-WorkBook Suite (ID Business Solutions Ltd., Guildford, UK). The IC50 was defined as the compound concentration (or conditioned media log dilution) at which HBsAg secretion was reduced by 50% compared to the no drug control.
# The compounds of the present invention were tested for their capacity to inhibit HBsAg as described herein. The Examples were tested in the above assay and found to have IC50 of about 0.001 μM to about 50.0 μM.
row,Compound,IC50 [nM]
1,"COc1cc2c(cc1OC)-c1cc(=O)c(C(=O)O)cn1CCC2 [Example 1, 10,11-Dimethoxy-2-oxo-7,8-dihydro-6H-pyrido[2,1-a][2]benzazepine-3-carboxylic acid]",35400
2,"CCC1CCc2cc(OCCCCCCNC(C)=O)c(OC)cc2-c2cc(=O)c(C(=O)O)cn21 (stereo not shown) [Example 6, 10-(6-Acetamidohexoxy)-6-ethyl-11-methoxy-2-oxo-7,8-dihydro-6H-pyrido[2,1-a][2]benzazepine-3-carboxylic acid]",12400
3,"CCC1CCc2cc(OCCCCCCN)c(OC)cc2-c2cc(=O)c(C(=O)O)cn21 (stereo not shown) [Example 5, 10-(6-Aminohexoxy)-6-ethyl-11-methoxy-2-oxo-7,8-dihydro-6H-pyrido[2,1-a][2]benzazepine-3-carboxylic acid]",602
4,"CCC1CCc2cc(OCCCCCCNC(=O)OC(C)(C)C)c(OC)cc2-c2cc(=O)c(C(=O)O)cn21 (stereo not shown) [Example 4, 10-[6-(Tert-butoxycarbonylamino)hexoxy]-6-ethyl-11-methoxy-2-oxo-7,8-dihydro-6H-pyrido[2,1-a][2]benzazepine-3-carboxylic acid]",619
5,"CCC1CCc2cc(OCCCCCCNS(C)(=O)=O)c(OC)cc2-c2cc(=O)c(C(=O)O)cn21 (stereo not shown) [Example 7, 6-Ethyl-10-[6-(methanesulfonamido)hexoxy]-11-methoxy-2-oxo-7,8-dihydro-6H-pyrido[2,1-a][2]benzazepine-3-carboxylic acid]",5870
6,"CCC1CCc2cc(OCCCOC)c(OC)cc2-c2cc(=O)c(C(=O)O)cn21 (stereo not shown) [Example 3, 6-Ethyl-11-methoxy-10-(3-methoxypropoxy)-2-oxo-7,8-dihydro-6H-pyrido[2,1-a][2]benzazepine-3-carboxylic acid]",419
7,"CCC1CCc2cc(OCCCSC)c(OC)cc2-c2cc(=O)c(C(=O)O)cn21 (stereo not shown) [Example 8, 6-Ethyl-11-methoxy-10-(3-methylsulfanylpropoxy)-2-oxo-7,8-dihydro-6H-pyrido[2,1-a][2]benzazepine-3-carboxylic acid]",1890
8,"CCC1CCc2cc(OCCCS(C)(=O)=O)c(OC)cc2-c2cc(=O)c(C(=O)O)cn21 (stereo not shown) [Example 9, 6-Ethyl-11-methoxy-10-(3-methylsulfonylpropoxy)-2-oxo-7,8-dihydro-6H-pyrido[2,1-a][2]benzazepine-3-carboxylic acid]",1070
9,"CCC1CCc2cc(OCc3ccccc3)c(OC)cc2-c2cc(=O)c(C(=O)O)cn21 (stereo not shown) [Example 2, 10-Benzyloxy-6-ethyl-11-methoxy-2-oxo-7,8-dihydro-6H-pyrido[2,1-a][2]benzazepine-3-carboxylic acid]",1080
10,"CCC1CCc2cc(OCC(F)(F)F)c(OC)cc2-c2cc(=O)c(C(=O)O)cn21 (stereo not shown) [Example 10, 6-Ethyl-11-methoxy-2-oxo-10-(2,2,2-trifluoroethoxy)-7,8-dihydro-6H-pyrido[2,1-a][2]benzazepine-3-carboxylic acid]",558
